Measurements published in patent US20180291070A1, “PEPTIDES, AND USES THEREOF” (priority 2015, published 2018).

System: Human Dermal Fibroblasts (HDF)
Assay: BrdU Cell Proliferation Assay
Assay type: cell-based
Details: 5, 0.5 or 0.05 μg/ml synthetic peptide 24 h
Method: BrDu is incorporated into newly synthesised DNA strands of actively proliferating cells. Following partial denaturation of double stranded DNA, Brdu is detected immunochemically allowing the assessment of the population of cells which are synthesizing DNA. Human Dermal Fibroblasts (HDF—Sigma 10605a) were seeded in a 96 well plate at 10,000 cells per well in DMEM containing 10% fetal calf serum (FCS), 1% Pen/strep, 1% L-glutamine and allowed to adhere for 24 h. Following the initial 24 h incubation the cells were incubated with 5 μg/ml, 0.5 μg/ml or 0.05 μg/ml synthetic peptide for 24 h respectively. After 18 h incubation with synthetic peptides 20 μl BrDu reagent was added to each well. At 24 h incubation the cell were fixed and the amount of […] was measured using the BrdU Cell Proliferation Assay, all steps were carried out according to the manufacturer's instructions. Results were calculated as a percentage of the untreated control. An increase in optical density reading indicates greatER incorporation of BrDu and increase cell proliferation.

Row | Substance | INCREASE IN PROLIFERATION
1 | 499 (ALPTDVLANAYR) [compound 499] | 113%
2 | 495 (SGFSTELLSEALGVSSQVAR) [compound 495] | 68%
3 | 84 (ISREEAQR) [compound 84] | 20%
4 | 222 (DDEEEEQGEEEINK) [compound 222] | 110%
5 | 497 (GLLLPHYTNGASLVY) [compound 497] | 58%
6 | 272 (PSYEKEEDEEEGQR) [compound 272] | 97%
7 | 146 (VFIDHPSFLEK) [compound 146] | 80%
8 | 256 (IPVNGPGKF) [compound 256] | 117%
9 | 285 (VVIIPAGHPVA) [compound 285] | 81%
10 | 74 (SIFRALPND) [compound 74] | 29%
11 | 479 (VEERSQNIFSGF) [compound 479] | 106%
12 | 124 (FYNEGDAPVVAL) [compound 124] | 15%
13 | 257 (LPQHIDADL) [compound 257] | 118%
14 | 248 (DNVISQIENPVKE) [compound 248] | 86%
15 | 464 (TVFNGVLRPGQL) [compound 464] | 18%
16 | 472 (LVPRYSNTPGM) [compound 472] | 77%
17 | 471 (YSNTPGMVY) [compound 471] | 38%
18 | 468 (ALVAKRLQGQNDQRGEI) [compound 468] | 82%
19 | 503 (QGDVIALPAGVAHW) [compound 503] | 125%
20 | 410 (TLFLPQYTDADFILVVLSGK) [compound 410] | 73%
21 | 403 (HPVAVRASSNLNLLGFGINAE) [compound 403] | 51%
22 | 452 (YYGEQQQQPGMTR) [compound 452] | 76%
23 | 226 (KEDDEEEEQGEEEINK) [compound 226] | 30%

Row | Substance | INCREASE IN PROLIFERATION
24 | 462 (QQQQPGMTRVR) [compound 462] | 15%
25 | 470 (PRYSNTPGMV) [compound 470] | 119%
26 | 477 (FYNEGDAPVVA) [compound 477] | 81%
27 | 482 (ASLQEQEQGQVQSR) [compound 482] | 113%
28 | 463 (QYAAQLPSMCRVEPQQCSIFAAGQY) [compound 463] | 100%
29 | 453 (SYEESMPMPLEQGWSSSSSE) [compound 453] | 25%
30 | 359 (GTSSVINNLPLDVVAATFNLQRNE) [compound 359] | 15%
31 | 501 (DVLANAYR) [compound 501] | 43%
32 | 73 (SIFRALPNDVLANAYRISREE) [compound 73] | 16%
33 | 253 (SKKSLPSE) [compound 253] | 112%
34 | 365 (AGTSSVINNLPLDV) [compound 365] | 58%
35 | 467 (NGVLRPGQL) [compound 467] | 90%
36 | 457 (SYEESMPMPLEQGWSSSSSEY) [compound 457] | 114%
37 | 112 (GEELGAFTPR) [compound 112] | 15%
38 | 460 (GEGSSEEGYYGEQQQQPGMTR) [compound 460] | 38%
39 | 270 (HGEWRPSYEKQEDEEEK) [compound 270] | 47%
40 | 465 (TVFNGVLRPGQLL) [compound 465] | 96%
41 | 249 (VVIIPAGHPVAITASSNLNLLGFG) [compound 249] | 30%
42 | 181 (DLAIPVNRPGQLQS) [compound 181] | 33%
43 | 454 (YYGEGSSEEGYYGEQQQQPGMTR) [compound 454] | 38%
44 | 121 (PNVNPWHNPRQGGF) [compound 121] | 48%
45 | 504 (FGAFTPLQYKSY) [compound 504] | 119%
46 | 455 (QQQQPGMTRV) [compound 455] | 47%
